Consider eleven compounds from ChEMBL document CHEMBL1126836, “Antiviral activity of C-alkylated purine nucleosides obtained by cross-coupling with tetraalkyltin reagents” (1993).

≈ marks a conversion by molar mass, not a printed value.

Common to all, as to assay type: functional
What all share (conditions): Homo sapiens

The subject of test [1] is E6SM. Nature of the test: Tested for minimum inhibitory concentration against HSV-1 (KOS strain) in E6SM cells.
Test [2] relates to E6SM. Kind of test: Tested for minimum inhibitory concentration against HSV-2 ([…] strain) in E6SM cells.
The test system of test [3] is E6SM. Kind of test: Tested for minimum inhibitory concentration against Vaccinia virus in E6SM cells.
Test [4] has as its system E6SM. Kind of test: Tested for minimum inhibitory concentration against vesicular stomatitis virus (VSV) in E6SM cells.
Test [5] concerns E6SM. Kind of test: Tested for minimum cytotoxic concentration on virus-induced cytopathicity in E6SM cells.
Test [6] deals with HeLa. Nature of the test: Tested for minimum cytotoxic concentration on RSV (respiratory syncytial virus)-induced cytopathicity in HeLa cells. Background: Protection from cytopathic effect is a common read-out in antiviral testing.
Test [7] concerns HeLa. Kind of test: Tested for minimum inhibitory concentration against RSV (respiratory syncytial virus) in HeLa cells.
Test [8] relates to E6SM. Nature of the test: Tested for minimum inhibitory concentration against vesicular stomatitis virus (VSV) in E6SM cells.
In test [9] the test system is HeLa. Nature of the test: Tested for minimum inhibitory concentration against RSV in HeLa cells.
The test system of test [10] is E6SM. Kind of test: Tested for minimum inhibitor concentration against vesicular stomatitis virus (VSV) in E6SM cells.
For test [11], the system named is HeLa. Nature of the test: Tested for minimum inhibitor concentration against RSV in HeLa cells.
For test [12], the system named is E6SM. Nature of the test: Tested for minimum inhibitor concentration against vesicular stomatitis virus (VSV) in E6SM cells.

Turning to `C=Cc1nc2c(N)ncnc2n1C1CCC(CO)O1` (configuration not stated), the MIC was > 100 µg/mL in [1] and > 20 µg/mL in test [2].

As to `Cc1nc2c(N)ncnc2n1C1CCC(CO)O1` (configuration not stated), the MIC in test [1] is > 100 µg/mL; in test [2], > 20 µg/mL.

Take `Cc1ncnc2c1ncn2[C@@H]1O[C@H](CO)[C@@H](O)[C@H]1O`: the MIC in test [1] came out at 0.4 µg/mL (≈ 1.5 µM); in [3] it was 0.04 µg/mL (≈ 0.15 µM); in test [4], 0.4 µg/mL (≈ 1.5 µM); in test [7], 0.4 µg/mL (≈ 1.5 µM). The MCC in test [5] stood at 1 µg/mL; in test [6] it was 0.8 µg/mL.

On to `Nc1nccc2c1ncn2[C@@H]1O[C@H](CO)[C@@H](O)[C@H]1O`, for which the MIC in test [1] was > 400 µg/mL; in [3], 2 µg/mL (≈ 7.51 µM); in test [8], 0.7 µg/mL (≈ 2.63 µM). Moreover, the MCC in test [5] was > 400 µg/mL.

For `C=Cc1nc2c(N)ncnc2n1[C@@H]1O[C@H](CO)[C@@H](O)[C@H]1O`, the MIC turned out to be 2 µg/mL (≈ 6.82 µM) in [1], 40 µg/mL (≈ 136 µM) in [2], 7 µg/mL (≈ 23.9 µM) in [3] and 4 µg/mL (≈ 13.6 µM) in [9]. In addition, the MCC was > 400 µg/mL in [5] and 70 µg/mL in [6].

Consider `CCc1nc(N)c2ncn(C3O[C@H](CO)[C@@H](O)[C@H]3O)c2n1` (some centres not stated), for which the MIC was > 10 µg/mL in test [10], > 10 µg/mL in [1], 7 µg/mL (≈ 23.7 µM) in [3] and 0.8 µg/mL (≈ 2.71 µM) in test [11]. Further, the MCC in test [5] was > 10 µg/mL; in test [6], 4 µg/mL.

For `C=Cc1ncnc2c1ncn2C1O[C@H](CO)[C@@H](O)[C@H]1O` (some centres not stated), the MIC in test [1] was 2 µg/mL (≈ 7.19 µM); in test [3] it was > 4 µg/mL; in test [4] it was > 4 µg/mL; in test [9] it was > 4 µg/mL. The MCC in test [5] was 10 µg/mL; in test [6] it was 4 µg/mL.

Turning to `CCc1nc2c(N)ncnc2n1C1O[C@H](CO)[C@@H](O)[C@H]1O` (some centres not stated), the MIC was > 100 µg/mL in test [1], 0.2 µg/mL (≈ 0.677 µM) in [3], > 200 µg/mL in [8] and 10 µg/mL (≈ 33.9 µM) in test [9]. Further, the MCC in test [5] is > 100 µg/mL; in test [6], 100 µg/mL.

As to `Cc1nc2c(N)ncnc2n1C1O[C@H](CO)[C@@H](O)[C@H]1O` (some centres not stated), the MIC in test [1] is > 100 µg/mL; in [3] it was 0.2 µg/mL (≈ 0.711 µM); in test [8], > 200 µg/mL; in [9], 4 µg/mL (≈ 14.2 µM). Further, the MCC in [5] was > 200 µg/mL; in test [6], 20 µg/mL.

On to `O=c1[nH]c(=O)n([C@H]2C[C@H](O)[C@@H](CO)O2)cc1/C=C/Br` [BRIVUDINE], for which the MIC in test [12] is > 400 µg/mL; in test [1], 0.02 µg/mL (≈ 0.06 µM); in test [3], 0.4 µg/mL (≈ 1.2 µM). Besides, the MCC in test [5] was > 400 µg/mL.

For the compound `NC(=O)c1ncn([C@@H]2O[C@H](CO)[C@@H](O)[C@H]2O)n1` [RIBAVIRIN], the MIC in [10] is 20 µg/mL (≈ 81.9 µM); in test [1], > 300 µg/mL; in [3], 70 µg/mL (≈ 287 µM). Moreover, the MCC in [5] was > 400 µg/mL.
